The numbers were not newly measured in US20240228797A1, “LIQUID REPELLENT SLIPPERY SURFACES AND METHODS OF PREPARATION THEREOF” (priority 2021, published 2024), which cites them from elsewhere.

Take `CC(C)CCCC(C)CCCC(C)CCCCC(C)CCCC(C)CCCC(C)C` (stereo not shown) [Squalane, squalane]: the water solubility result is on record as “extremely low water solubility”.
